# Experimental data: the supplement of paper PMC10307832
# Assays:
# Assay in all cases: relative viability (nuclei count vs DMSO), 5 days (fraction); higher = more cells survive
# [1] = compound: C[C@]1(c2nc3c(C(N)=O)cccc3[nH]2)CCCN1 [Veliparib] + Cc1nc(Nc2ncc(C(=O)Nc3c(C)cccc3Cl)s2)cc(N2CCN(CCO)CC2)n1 [Dasatinib] (partner 0.075 µM)
# How it was run: (§1)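 Each reported value is a median over duplicate plates. It expresses relative viability: treated-well nuclei count divided by vehicle-well nuclei count. Lung cancer cell lines in 1536-well plates were dosed by pin tool a day after seeding, alone with one drug or with a fixed anchor-drug dose plus five library-drug doses (not always all listed) in √10 steps, and nuclei were counted after 5 days.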
# [2] = compound: COC1=CC=C(C=C1)CN2C=CC3=C2C=C(C=C3)C(=O)NO + C[C@@H](Oc1cc(-c2cnn(C3CCNCC3)c2)cnc1N)c1c(Cl)ccc(F)c1Cl [Crizotinib] (partner 1 µM)
# How it was run: as §1
# [3] = compound: C[C@]1(c2nc3c(C(N)=O)cccc3[nH]2)CCCN1 [Veliparib] + CCNC(=O)c1noc(-c2cc(C(C)C)c(O)cc2O)c1-c1ccc(CN2CCOCC2)cc1 [Luminespib] (partner 0.01 µM)
# How it was run: as §1
# [4] = compound: C[C@]1(c2nc3c(C(N)=O)cccc3[nH]2)CCCN1 [Veliparib] + CC1(C)CCC(c2ccc(Cl)cc2)=C(CN2CCN(c3ccc(C(=O)NS(=O)(=O)c4ccc(N[C@H](CCN5CCOCC5)CSc5ccccc5)c(S(=O)(=O)C(F)(F)F)c4)cc3)CC2)C1 [Navitoclax] (partner 0.5 µM)
# How it was run: as §1
Cell Line,relative viability ([1]; first compound 0.02 µM),relative viability ([1]; first compound 0.06325 µM),relative viability ([1]; first compound 0.2 µM),relative viability ([1]; first compound 0.6325 µM),relative viability ([1]; first compound 2 µM),relative viability ([2]; first compound 0.08 µM),relative viability ([2]; first compound 0.253 µM),relative viability ([2]; first compound 0.8 µM),relative viability ([2]; first compound 2.53 µM),relative viability ([2]; first compound 8 µM),relative viability ([3]; first compound 0.02 µM),relative viability ([3]; first compound 0.06325 µM),relative viability ([3]; first compound 0.2 µM),relative viability ([3]; first compound 0.6325 µM),relative viability ([3]; first compound 2 µM),relative viability ([4]; first compound 0.02 µM),relative viability ([4]; first compound 0.06325 µM),relative viability ([4]; first compound 0.2 µM),relative viability ([4]; first compound 0.6325 µM),relative viability ([4]; first compound 2 µM)
201T,0.529,0.572,0.537,0.614,0.52,1.02,0.999,1.06,1.08,0.969,0.995,1.11,1.07,1.1,1.11,1.21,1.21,1.17,1.19,1.15
A549,–,–,–,–,–,–,0.767,0.855,0.617,0.63,–,–,–,–,–,1.25,1.18,1.17,1.16,1.13
A-427,–,0.714,0.699,0.657,0.539,–,0.857,1.03,0.828,0.884,–,0.908,0.72,1.12,0.931,1.05,0.795,0.93,0.938,0.893
ABC-1,–,0.355,0.604,0.591,0.367,–,1.3,1.17,1.31,1.12,–,0.543,0.377,0.422,0.524,–,–,–,–,–
BEN,0.232,0.292,0.377,0.361,0.266,0.756,0.814,0.894,0.869,0.851,0.161,0.188,0.308,0.557,0.148,0.0726,0.0807,0.0698,0.0678,0.0746
CAL-12T,0.287,0.354,0.386,0.308,0.468,0.474,0.616,0.702,0.686,0.542,0.348,0.147,0.522,0.266,0.155,1.38,1.03,1.3,1.2,1.32
COR-L23,0.428,0.434,0.361,0.425,0.471,0.499,0.77,0.503,0.574,0.632,0.696,0.523,0.558,0.538,0.433,1.15,0.957,0.899,0.86,0.999
COR-L 105,0.355,0.273,0.352,0.331,0.324,–,0.847,0.714,0.775,0.434,0.794,0.743,0.831,0.59,0.851,0.688,0.817,0.712,0.615,0.928
Calu-6,–,–,–,–,–,0.433,0.759,0.773,0.894,0.71,–,–,–,–,–,0.946,0.871,0.914,0.824,0.867
ChaGo-K-1,0.336,0.615,0.566,0.624,0.584,–,1.24,1.06,1.09,0.926,0.44,0.655,0.648,0.525,0.596,–,0.833,1.08,1.06,0.85
EBC-1,–,–,–,–,–,–,0.183,0.201,0.179,0.181,–,–,–,–,–,0.508,0.405,0.487,0.334,0.407
EKVX,–,0.658,0.66,0.532,0.48,0.767,0.762,1.16,0.891,0.934,0.82,0.835,0.89,0.812,0.827,0.814,0.974,0.884,0.891,0.819
EMC-BAC-2,0.362,0.27,0.333,0.305,0.315,0.224,0.828,0.746,0.708,0.687,1.24,1.09,1.28,1.12,1.21,1.2,1.18,1.15,1.14,1.08
EPLC-272H,0.291,0.367,0.323,0.325,0.36,0.825,0.906,1.08,0.867,0.896,0.264,0.526,0.485,0.0856,0.179,–,1.08,0.999,1.22,1.16
H3255,0.303,0.344,0.253,0.402,0.32,0.571,0.933,0.88,0.833,0.787,0.698,0.717,0.778,0.894,0.813,0.479,0.445,0.537,0.477,0.518
HARA,0.254,0.383,0.294,0.231,0.267,0.194,1.1,0.99,1.09,0.951,0.82,0.778,0.782,0.639,0.416,1.17,1.09,1.1,1.08,1.15
HCC-15,–,0.524,0.629,0.603,0.582,0.616,0.805,0.919,0.787,0.814,0.302,0.314,0.252,0.191,0.334,0.723,0.702,0.719,0.721,0.65
HCC-44,–,–,–,–,–,0.746,0.781,0.824,0.852,0.815,1.09,–,1.12,0.917,0.985,1.05,0.846,1.02,0.798,0.967
HCC-78,0.438,0.337,0.444,0.483,0.257,–,0.373,0.345,0.342,0.344,–,–,–,–,–,0.892,0.77,0.881,0.646,0.648
